Experimental data from patent US10202361B2, “Pyridazinones as herbicides” (E I DU PONT DE NEMOURS AND COMPANY, priority 2014, dated 2019).

Legend:
Type in all cases: in vivo
[1] = system: radish, wild (wild radish, Raphanus raphanistrum); test: Test D pre-/postemergence controlled growth environment herbicide test; conditions: scale 0 to 100
Outline: (§1)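 Ratings come from visual comparison with untreated plants on a 0–100 scale, 0 meaning no effect. Test chemicals in surfactant-containing solvent were applied either to soil at planting (silt loam) or over foliage of 2–18 cm plants in peat-based medium, then held 14–21 d in a controlled growth environment.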

[2] = system: speedwell (bird's-eye speedwell, Veronica persica); test: as above; conditions: scale 0 to 100
Outline: as §1

[3] = system: foxtail, green (green foxtail, Setaria viridis); test: as above; conditions: scale 0 to 100
Outline: as §1

[4] = system: oat, wild (wild oat, Avena fatua); test: as above; conditions: scale 0 to 100
Outline: as §1

[5] = system: Russian thistle (Salsola kali); test: as above; conditions: scale 0 to 100
Outline: as §1

[6] = system: barley, winter (winter barley, Hordeum vulgare); test: as above; conditions: scale 0 to 100
Outline: as §1

[7] = system: nutsedge, yellow (yellow nutsedge, Cyperus esculentus); test: Test E pre-/postemergence greenhouse herbicide test; conditions: Preemergence, scale 0 to 100
[8] = system: cocklebur (common cocklebur, Xanthium strumarium); test: as above; conditions: Preemergence, scale 0 to 100
[9] = system: surinam grass (Brachiaria decumbens); test: as above; conditions: Preemergence, scale 0 to 100
[10] = system: crabgrass, large (large crabgrass Digitaria sanguinalis); test: as above; conditions: Preemergence, scale 0 to 100

Compound: COc1cc(=O)n(-c2ccc(F)cc2)nc1Cc1ccnc(C(F)(F)F)c1 [Compound 17, 2-(4-fluorophenyl)-5-methoxy-6-[[2-(trifluoromethyl)-4-pyridinyl]methyl]-3 (2H)-pyridazinone]
- Plant response rating ([1]; Postemergence, 31 g ai/ha): 30
- Plant response rating ([1]; Postemergence, 62 g ai/ha): 35
- Plant response rating ([1]; Postemergence, 125 g ai/ha): 60
- Plant response rating ([1]; Postemergence, 250 g ai/ha): 100
- Plant response rating ([1]; Postemergence, 500 g ai/ha): 100
- Plant response rating ([1]; Preemergence, 31 g ai/ha): 30
- Plant response rating ([1]; Preemergence, 62 g ai/ha): 100
- Plant response rating ([1]; Preemergence, 125 g ai/ha): 100
- Plant response rating ([1]; Preemergence, 250 g ai/ha): 100
- Plant response rating ([1]; Preemergence, 500 g ai/ha): 100
- Plant response rating ([2]; Postemergence, 31 g ai/ha): 10
- Plant response rating ([2]; Postemergence, 62 g ai/ha): 100
- Plant response rating ([2]; Postemergence, 125 g ai/ha): 100
- Plant response rating ([2]; Postemergence, 250 g ai/ha): 100
- Plant response rating ([2]; Postemergence, 500 g ai/ha): 100
- Plant response rating ([2]; Preemergence, 31 g ai/ha): 100
- Plant response rating ([2]; Preemergence, 62 g ai/ha): 100
- Plant response rating ([2]; Preemergence, 125 g ai/ha): 100
- Plant response rating ([2]; Preemergence, 250 g ai/ha): 100
- Plant response rating ([2]; Preemergence, 500 g ai/ha): 100
- Plant response rating ([3]; Postemergence, 31 g ai/ha): 10
- Plant response rating ([3]; Postemergence, 62 g ai/ha): 10
- Plant response rating ([3]; Postemergence, 125 g ai/ha): 15
- Plant response rating ([3]; Postemergence, 250 g ai/ha): 30
- Plant response rating ([3]; Postemergence, 500 g ai/ha): 80
- Plant response rating ([3]; Preemergence, 31 g ai/ha): 15
- Plant response rating ([3]; Preemergence, 62 g ai/ha): 95
- Plant response rating ([3]; Preemergence, 125 g ai/ha): 100
- Plant response rating ([3]; Preemergence, 250 g ai/ha): 100
- Plant response rating ([3]; Preemergence, 500 g ai/ha): 100
- Plant response rating ([4]; Postemergence, 31 g ai/ha): 10
- Plant response rating ([4]; Postemergence, 62 g ai/ha): 10
- Plant response rating ([4]; Postemergence, 125 g ai/ha): 10
- Plant response rating ([4]; Postemergence, 250 g ai/ha): 20
- Plant response rating ([4]; Postemergence, 500 g ai/ha): 50
- Plant response rating ([4]; Preemergence, 31 g ai/ha): 0
- Plant response rating ([4]; Preemergence, 62 g ai/ha): 0
- Plant response rating ([4]; Preemergence, 125 g ai/ha): 50
- Plant response rating ([4]; Preemergence, 250 g ai/ha): 75
- Plant response rating ([4]; Preemergence, 500 g ai/ha): 85
- Plant response rating ([5]; Postemergence, 31 g ai/ha): 30
- Plant response rating ([5]; Postemergence, 62 g ai/ha): 30
- Plant response rating ([5]; Postemergence, 125 g ai/ha): 100
- Plant response rating ([5]; Postemergence, 250 g ai/ha): 100
- Plant response rating ([5]; Postemergence, 500 g ai/ha): 100
- Plant response rating ([5]; Preemergence, 31 g ai/ha): 0
- Plant response rating ([5]; Preemergence, 62 g ai/ha): 100
- Plant response rating ([5]; Preemergence, 125 g ai/ha): 100
- Plant response rating ([5]; Preemergence, 250 g ai/ha): 100
- Plant response rating ([5]; Preemergence, 500 g ai/ha): 100
- Plant response rating ([6]; Postemergence, 31 g ai/ha): 15
- Plant response rating ([6]; Postemergence, 62 g ai/ha): 15
- Plant response rating ([6]; Postemergence, 125 g ai/ha): 25
- Plant response rating ([6]; Postemergence, 250 g ai/ha): 30
- Plant response rating ([6]; Postemergence, 500 g ai/ha): 35
- Plant response rating ([6]; Preemergence, 31 g ai/ha): 10
- Plant response rating ([6]; Preemergence, 62 g ai/ha): 20
- Plant response rating ([6]; Preemergence, 125 g ai/ha): 40
- Plant response rating ([6]; Preemergence, 250 g ai/ha): 75
- Plant response rating ([6]; Preemergence, 500 g ai/ha): 80
- Plant response rating: Nutsedge, Yellow ([7]; 16 g ai/ha): 0
- Plant response rating: Nutsedge, Yellow ([7]; 31 g ai/ha): 0
- Plant response rating: Nutsedge, Yellow ([7]; 62 g ai/ha): 35
- Plant response rating: Nutsedge, Yellow ([7]; 125 g ai/ha): 50
- Plant response rating: Nutsedge, Yellow ([7]; 250 g ai/ha): 70
- Plant response rating: Cocklebur ([8]; 16 g ai/ha): 0
- Plant response rating: Cocklebur ([8]; 62 g ai/ha): 0
- Plant response rating: Surinam Grass ([9]; 16 g ai/ha): 0
- Plant response rating: Surinam Grass ([9]; 31 g ai/ha): 20
- Plant response rating: Surinam Grass ([9]; 62 g ai/ha): 65
- Plant response rating: Surinam Grass ([9]; 125 g ai/ha): 75
- Plant response rating: Surinam Grass ([9]; 250 g ai/ha): 75
- Plant response rating: Crabgrass, Large ([10]; 16 g ai/ha): 35
- Plant response rating: Crabgrass, Large ([10]; 31 g ai/ha): 100
- Plant response rating: Crabgrass, Large ([10]; 62 g ai/ha): 100
- Plant response rating: Crabgrass, Large ([10]; 125 g ai/ha): 100
- Plant response rating: Crabgrass, Large ([10]; 250 g ai/ha): 100
